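Each compound was tested at five concentrations against cells in 96-well plates for 48 hours. TGI: total growth inhibition.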

One assay deals with SK-OV-3 ovarian. In words: growth of human tumour cells (NCI), 48 h.
Regarding `NC(C(F)(F)F)(C(F)(F)F)P(=O)(Cc1ccccc1)Cc1ccccc1`, the TGI is > 100 µM.

For `COc1ccc(C2CC(c3c(O)ccc4ccccc34)=NN2c2ccc([N+](=O)[O-])cc2[N+](=O)[O-])cc1OC` (configuration not stated), the TGI was > 88 µM.

For `S=C(N/N=C\C=N/NC(=S)N1CCCCC1)N1CCCCC1`, the TGI was > 100 µM.

Consider `CN1C(=O)C2C(=O)N(Cc3ccccc3)CC(=O)N2c2cccnc21` (configuration not stated), for which the TGI is > 100 µM.

`C=C1CC(COc2cc(=O)oc3ccccc23)(c2ccccc2)OC1=O` (configuration not stated) showed a TGI of 16.1 µM.

Turning to `O=C(O)CSc1nnc(COc2ccc(Cl)cc2)n1-c1ccccc1`, the TGI is > 100 µM.

`CN(C)CCCOc1nc2c(c(=O)n(C)c(=O)n2C)n1C` (tested in a mixture with another compound): the TGI is > 100 µM.

As to `C[N+]1=C2[B-](C(C)(C)C)=[N+](C(C)(C)C)[B-]2(C(C)(C)C)[N+](C)=C2[B-](C(C)(C)C)=[N+](C(C)(C)C)[B-]21C(C)(C)C` (configuration not stated), the TGI was > 100 µM.

`Cc1cc(N(CCC#N)CCC#N)ccc1/C=N/NC(=O)c1cc(Cl)ccc1O`: the TGI is > 100 µM.

Turning to `Brc1ccc(CCNCCN2CCCCC2)cc1`, the TGI turned out to be 42 µM.

Take `Cc1ccc(C(=O)Nc2ccc(CP(=O)(O)O)cc2CP(=O)(O)O)cc1NC(=O)c1cccc(N)c1`: the TGI is > 100 µM.

For the compound `OC1C2[C@@H](O)CCCN2C[C@@H](O)[C@H]1O` (some centres not stated), the TGI was > 100 µM.

Turning to `CN(C)/N=N/c1nc2c(c(=O)n(C)c(=O)n2C)n1C`, the TGI is > 100 µM.

For the compound `COc1ccccc1N/C(=C\C(=O)C(=O)NC12CC3CC(CC(C3)C1)C2)c1ccccc1`, the TGI is > 10 µM.

`CCN(CC)CCc1c2c(nc3ccccc13)C(=O)c1cccnc1C2=O` returned a TGI of 4.22 µM.

Regarding `Nc1cc(CO)cc(Nc2nc3ccc(Cl)cc3c3[nH]c4ccccc4c23)c1`, the TGI stood at 22.2 µM.

As for `CCN1CC2=C(NC(=S)NC2c2ccc(Cl)cc2)/C(=C/c2ccc(Cl)cc2)C1` (configuration not stated), the TGI was > 100 µM.

In the case of `Oc1ccc(/C=C/c2cc(O)cc(O)c2)cc1`, the TGI is > 100 µM.

Take `O=C(O)c1c2c(cc3c1CC1(Cc4ccccc4C1)C3)CCC2`: the TGI was > 100 µM.

In the case of `OCC1CCCCCCCCCCC12SCCCS2` (configuration not stated), the TGI was > 100 µM.

Consider `O=C(O)c1cc2c(cc1CC(Cc1ccc3c(c1)CCC3)C(=O)O)CCC2` (configuration not stated), for which the TGI is > 100 µM.

`O=C1CCC[C@@H]2NC[C@@H](c3ccc4c(c3)OCO4)[C@H]12`: the TGI was > 25 µM.

With `O=C(Nc1ccc(Br)cc1)c1c(-c2ccccc2)c2ccc(O)cc2oc1=O`, the TGI was > 10 µM.

For `CC(O[Si](c1ccccc1)(c1ccccc1)C(C)(C)C)[C@H](NC(=O)OC(C)(C)C)C(=O)O[Si](c1ccccc1)(c1ccccc1)C(C)(C)C` (some centres not stated), the TGI was 30 µM.

Turning to `CC(C)c1ccc2[nH]c(O)c(-c3[nH]c4ccccc4c3N=O)c2c1`, the TGI is 19.6 µM.

`Cc1nc2c(sc(=S)n2-c2ccccc2)c2nc3ncccc3n12`: the TGI is > 100 µM.

`Cc1nnc(Nc2ccccc2)o1`: the TGI is > 100 µM.

The test system of another assay is NCI-H460 lung. In words: growth of human tumour cells (NCI), 48 h.
For `NC(C(F)(F)F)(C(F)(F)F)P(=O)(Cc1ccccc1)Cc1ccccc1`, the TGI was > 100 µM.

As for `COc1ccc(C2CC(c3c(O)ccc4ccccc34)=NN2c2ccc([N+](=O)[O-])cc2[N+](=O)[O-])cc1OC` (configuration not stated), the TGI was > 100 µM.

For the compound `S=C(N/N=C\C=N/NC(=S)N1CCCCC1)N1CCCCC1`, the TGI is > 41.5 µM.

In the case of `CN1C(=O)C2C(=O)N(Cc3ccccc3)CC(=O)N2c2cccnc21` (configuration not stated), the TGI is > 100 µM.

Regarding `C=C1CC(COc2cc(=O)oc3ccccc23)(c2ccccc2)OC1=O` (configuration not stated), the TGI worked out at 23.7 µM.

Take `O=C(O)CSc1nnc(COc2ccc(Cl)cc2)n1-c1ccccc1`: the TGI was > 100 µM.

Regarding `CN(C)CCCOc1nc2c(c(=O)n(C)c(=O)n2C)n1C` (tested in a mixture with another compound), the TGI was > 100 µM.

For `C[N+]1=C2[B-](C(C)(C)C)=[N+](C(C)(C)C)[B-]2(C(C)(C)C)[N+](C)=C2[B-](C(C)(C)C)=[N+](C(C)(C)C)[B-]21C(C)(C)C` (configuration not stated), the TGI was > 100 µM.

Regarding `Cc1cc(N(CCC#N)CCC#N)ccc1/C=N/NC(=O)c1cc(Cl)ccc1O`, the TGI is > 100 µM.

`Brc1ccc(CCNCCN2CCCCC2)cc1` gave a TGI of 27.8 µM.

Take `Cc1ccc(C(=O)Nc2ccc(CP(=O)(O)O)cc2CP(=O)(O)O)cc1NC(=O)c1cccc(N)c1`: the TGI is > 100 µM.

In the case of `OC1C2[C@@H](O)CCCN2C[C@@H](O)[C@H]1O` (some centres not stated), the TGI is > 100 µM.

Consider `CN(C)/N=N/c1nc2c(c(=O)n(C)c(=O)n2C)n1C`, for which the TGI is > 100 µM.

As for `COc1ccccc1N/C(=C\C(=O)C(=O)NC12CC3CC(CC(C3)C1)C2)c1ccccc1`, the TGI was > 10 µM.

In turn, `CC(C)(C)c1ccc2c(c1)CNCCNCc1cc(C(C)(C)C)ccc1OCC1(CO2)COc2ccc(C(C)(C)C)cc2CNCCNCc2cc(C(C)(C)C)ccc2OC1` returned a TGI of 0.609 µM.

Consider `Nc1cc(CO)cc(Nc2nc3ccc(Cl)cc3c3[nH]c4ccccc4c23)c1`, for which the TGI was 6.56 µM.

Consider `O=C(CC(=O)n1nc(-c2ccccc2)c(N=Nc2ccccc2C(=O)O)c1-c1ccccc1)Nc1ccc(Cl)cc1`, for which the TGI was > 100 µM.

For the compound `CCN1CC2=C(NC(=S)NC2c2ccc(Cl)cc2)/C(=C/c2ccc(Cl)cc2)C1` (configuration not stated), the TGI was 45.8 µM.

`CN1C(=O)N(c2ccccc2)C2(CCN(CC3COc4ccccc4O3)CC2)C1=O` (configuration not stated): the TGI is > 100 µM.

Take `Oc1ccc(/C=C/c2cc(O)cc(O)c2)cc1`: the TGI is > 100 µM.

Take `O=C(O)c1c2c(cc3c1CC1(Cc4ccccc4C1)C3)CCC2`: the TGI was > 100 µM.

Consider `OCC1CCCCCCCCCCC12SCCCS2` (configuration not stated), for which the TGI was > 100 µM.

As for `O=C(O)c1cc2c(cc1CC(Cc1ccc3c(c1)CCC3)C(=O)O)CCC2` (configuration not stated), the TGI is > 100 µM.

Turning to `CC(C)=CCOC(=O)C(C)=[N+]=[N-]`, the TGI is > 100 µM.

For the compound `O=C1CCC[C@@H]2NC[C@@H](c3ccc4c(c3)OCO4)[C@H]12`, the TGI is > 25 µM.

For `O=C(Nc1ccc(Br)cc1)c1c(-c2ccccc2)c2ccc(O)cc2oc1=O`, the TGI is > 10 µM.

The compound `CC(O[Si](c1ccccc1)(c1ccccc1)C(C)(C)C)[C@H](NC(=O)OC(C)(C)C)C(=O)O[Si](c1ccccc1)(c1ccccc1)C(C)(C)C` (some centres not stated) came in with a TGI of 25.5 µM.

For `CC(C)c1ccc2[nH]c(O)c(-c3[nH]c4ccccc4c3N=O)c2c1`, the TGI is 15.2 µM.

As to `Cc1nc2c(sc(=S)n2-c2ccccc2)c2nc3ncccc3n12`, the TGI is > 100 µM.

The compound `CCCc1cc(=O)c2c(C)c3[nH]c4ccc(Cl)cc4c3c(C)c2[nH]1` had a TGI of 3.79 µM.

In a further assay the test system is M14 melanoma. In words: growth of human tumour cells (NCI), 48 h.
Take `NC(C(F)(F)F)(C(F)(F)F)P(=O)(Cc1ccccc1)Cc1ccccc1`: the TGI is > 100 µM.

For `COc1ccc(C2CC(c3c(O)ccc4ccccc34)=NN2c2ccc([N+](=O)[O-])cc2[N+](=O)[O-])cc1OC` (configuration not stated), the TGI is > 100 µM.

Turning to `S=C(N/N=C\C=N/NC(=S)N1CCCCC1)N1CCCCC1`, the TGI is > 100 µM.

In the case of `CN1C(=O)C2C(=O)N(Cc3ccccc3)CC(=O)N2c2cccnc21` (configuration not stated), the TGI was > 100 µM.

Compound `C=C1CC(COc2cc(=O)oc3ccccc23)(c2ccccc2)OC1=O` (configuration not stated) displayed a TGI of 3.3 µM.

The record behind these values is PubChem BioAssay (NCI).
